Columns and labels:
[1] = test system: normal NK cells expanded with K562-aAPC; test: percent inhibition of viability; higher = more inhibition; conditions: 72 h, IL-2 2.5 ng/mL
Description: (§1)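 Drug sensitivity and resistance testing on K562-aAPC-expanded normal NK cells: 5 concentrations (10-fold steps over a 10,000-fold range), 72 h at 37 °C, viability by CellTiter-Glo normalised to DMSO and benzethonium chloride controls; DSS from the fitted curve.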

DERL-7 (IL-2 2.5 ng/mL) [2] = test: as above; conditions: 72 h
IMC-1 (IL-2 20 ng/mL) [3] = test: as above; conditions: 72 h
KAI3 (IL-2 2.5 ng/mL) [4] = test: as above; conditions: 72 h
KHYG-1 (IL-2 2.5 ng/mL) [5] = test: as above; conditions: 72 h
NK-92 (IL-2 2.5 ng/mL) [6] = test: as above; conditions: 72 h
NK-YS (IL-2 2.5 ng/mL) [7] = test: as above; conditions: 72 h
NKL (IL-2 2.5 ng/mL) [8] = test: as above; conditions: 72 h
SNK-6 (IL-2 2.5 ng/mL) [9] = test: as above; conditions: 72 h
YT (IL-2 2.5 ng/mL) [10] = test: as above; conditions: 72 h
[11] = test system: normal primary NK cells, pool 1 (3 donors) (IL-2 2.5 ng/mL); test: as above; conditions: 72 h
[12] = test system: normal primary NK cells, pool 1 (3 donors), resting (IL-2 0 ng/mL); test: as above; conditions: 72 h
[13] = test system: normal primary NK cells, pool 2 (3 donors) (IL-2 2.5 ng/mL); test: as above; conditions: 72 h
[14] = test system: normal primary NK cells, pool 3 (3 donors) (IL-2 2.5 ng/mL); test: as above; conditions: 72 h
[15] = test system: normal NK cells expanded with K562-aAPC; test: drug sensitivity score (DSS) (DSS units); higher = more sensitive; extreme values may be limits of the assay; conditions: 72 h; IL-2 2.5 ng/mL
Description: as §1

DERL-7 (IL-2 2.5 ng/mL) [16] = test: as above; conditions: 72 h
IMC-1 (IL-2 20 ng/mL) [17] = test: as above; conditions: 72 h
KAI3 (IL-2 2.5 ng/mL) [18] = test: as above; conditions: 72 h
KHYG-1 (IL-2 2.5 ng/mL) [19] = test: as above; conditions: 72 h
NK-92 (IL-2 2.5 ng/mL) [20] = test: as above; conditions: 72 h
NK-YS (IL-2 2.5 ng/mL) [21] = test: as above; conditions: 72 h
NKL (IL-2 2.5 ng/mL) [22] = test: as above; conditions: 72 h
SNK-6 (IL-2 2.5 ng/mL) [23] = test: as above; conditions: 72 h
YT (IL-2 2.5 ng/mL) [24] = test: as above; conditions: 72 h
[25] = test system: normal primary NK cells, pool 1 (3 donors) (IL-2 2.5 ng/mL); test: as above; conditions: 72 h
[26] = test system: normal primary NK cells, pool 1 (3 donors), resting (IL-2 0 ng/mL); test: as above; conditions: 72 h
[27] = test system: normal primary NK cells, pool 2 (3 donors) (IL-2 2.5 ng/mL); test: as above; conditions: 72 h
[28] = test system: normal primary NK cells, pool 3 (3 donors) (IL-2 2.5 ng/mL); test: as above; conditions: 72 h

Nc1ccccc1NC(=O)c1ccc(CNc2nccc(-c3cccnc3)n2)cc1 [Mocetinostat] (max concentration tested 10000 nM)
percent inhibition of viability [%]
Conditions | 1 nM | 10 nM | 100 nM | 1000 nM | 10000 nM
DERL-7 (IL-2 2.5 ng/mL) [2] | -3.82 | -7.01 | -13.8 | 99.3 | 101
IMC-1 (IL-2 20 ng/mL) [3] | -6.53 | -6.19 | 4.71 | 98.2 | 101
KAI3 (IL-2 2.5 ng/mL) [4] | -5.2 | 1.15 | 22.6 | 77.3 | 104
KHYG-1 (IL-2 2.5 ng/mL) [5] | -6.09 | -6.23 | -4.57 | 100 | 105
NK-92 (IL-2 2.5 ng/mL) [6] | -18.8 | -10.3 | 8.7 | 99.6 | 105
NK-YS (IL-2 2.5 ng/mL) [7] | -9.56 | -10.2 | -10.2 | 71.5 | 102
NKL (IL-2 2.5 ng/mL) [8] | -8.5 | -7.5 | 22.2 | 98.2 | 106
SNK-6 (IL-2 2.5 ng/mL) [9] | -6.1 | -9.13 | 11.2 | 96.4 | 100
YT (IL-2 2.5 ng/mL) [10] | -3.42 | -2.92 | 3.45 | 48.2 | 104
[1] | -2.73 | -8.59 | -12.3 | 81.4 | 100
[11] | 0.77 | 13.7 | 15.1 | 47 | 90.7
[12] | 6.94 | 10 | 2.89 | 76.2 | 88.4
[13] | -2.61 | -1 | -6.41 | 66.8 | 94.1
[14] | -0.12 | -0.69 | 5.62 | 57.3 | 94.5

Conditions | drug sensitivity score
DERL-7 (IL-2 2.5 ng/mL) [16] | 17
IMC-1 (IL-2 20 ng/mL) [17] | 18.4
KAI3 (IL-2 2.5 ng/mL) [18] | 17.2
KHYG-1 (IL-2 2.5 ng/mL) [19] | 17.6
NK-92 (IL-2 2.5 ng/mL) [20] | 19.3
NK-YS (IL-2 2.5 ng/mL) [21] | 13.7
NKL (IL-2 2.5 ng/mL) [22] | 21.4
SNK-6 (IL-2 2.5 ng/mL) [23] | 19.4
YT (IL-2 2.5 ng/mL) [24] | 11.6
[15] | 14.8
[25] | 11.4
[26] | 14.3
[27] | 12.9
[28] | 12.2

NS(=O)(=O)OC[C@@H]1C[C@@H](n2ccc3c(N[C@H]4CCc5ccccc54)ncnc32)C[C@@H]1O [Pevonedistat] (max concentration tested 10000 nM)
percent inhibition of viability [%]
Conditions | 1 nM | 10 nM | 100 nM | 1000 nM | 10000 nM
DERL-7 (IL-2 2.5 ng/mL) [2] | 1.08 | 2.36 | -6.58 | 91.5 | 101
IMC-1 (IL-2 20 ng/mL) [3] | 0.59 | 6.87 | 46.6 | 92.8 | 98.2
KAI3 (IL-2 2.5 ng/mL) [4] | 9.59 | 12.4 | 70.2 | 95 | 100
KHYG-1 (IL-2 2.5 ng/mL) [5] | 3.14 | -1.1 | 71.7 | 105 | 106
NK-92 (IL-2 2.5 ng/mL) [6] | -8.15 | 6.99 | 1.09 | 75.8 | 109
NK-YS (IL-2 2.5 ng/mL) [7] | 0.95 | -1.33 | 3.83 | 78.1 | 98.4
NKL (IL-2 2.5 ng/mL) [8] | -12.9 | -14.6 | -16.9 | 92.3 | 104
SNK-6 (IL-2 2.5 ng/mL) [9] | 23.6 | 3.72 | 89 | 97.2 | 99.5
YT (IL-2 2.5 ng/mL) [10] | -2.08 | 2.87 | 62.7 | 79.6 | 82.8
[1] | -5 | -5.72 | -9.68 | 70.2 | 80.3
[11] | -6.09 | 19.2 | 23.3 | 57.4 | 69.8
[12] | 1.82 | 21.5 | -26.7 | -18.9 | -22.4
[13] | -6.66 | 4.92 | 9.96 | 45 | 64.2
[14] | -5.71 | 5 | 10.3 | 68.8 | 81

Conditions | drug sensitivity score
DERL-7 (IL-2 2.5 ng/mL) [16] | 16.3
IMC-1 (IL-2 20 ng/mL) [17] | 22.6
KAI3 (IL-2 2.5 ng/mL) [18] | 27.2
KHYG-1 (IL-2 2.5 ng/mL) [19] | 26.2
NK-92 (IL-2 2.5 ng/mL) [20] | 14.2
NK-YS (IL-2 2.5 ng/mL) [21] | 15
NKL (IL-2 2.5 ng/mL) [22] | 16.1
SNK-6 (IL-2 2.5 ng/mL) [23] | 29
YT (IL-2 2.5 ng/mL) [24] | 22.8
[15] | 12.6
[25] | 14
[26] | 0
[27] | 9.66
[28] | 14

COC(=O)N[C@@H](C)CNc1nccc(-c2cn(C(C)C)nc2-c2cc(Cl)cc(NS(C)(=O)=O)c2F)n1 [Encorafenib] (max concentration tested 1000 nM)
percent inhibition of viability [%]
Conditions | 0.1 nM | 1 nM | 10 nM | 100 nM | 1000 nM
DERL-7 (IL-2 2.5 ng/mL) [2] | -4.45 | 1.39 | -5.31 | -20.4 | 2.89
IMC-1 (IL-2 20 ng/mL) [3] | -3.38 | -1.85 | -0.96 | 1.07 | 11.3
KAI3 (IL-2 2.5 ng/mL) [4] | -3.35 | -4.73 | -1.44 | -5.19 | 35.6
KHYG-1 (IL-2 2.5 ng/mL) [5] | 1.4 | 3.41 | 40.8 | 96.3 | 36
NK-92 (IL-2 2.5 ng/mL) [6] | 3.73 | -5.79 | 17.9 | 6.05 | 10.7
NK-YS (IL-2 2.5 ng/mL) [7] | 0.75 | 0.97 | 2.64 | 4.64 | 15.7
NKL (IL-2 2.5 ng/mL) [8] | -6.88 | -1.53 | -12.4 | -13 | 2.6
SNK-6 (IL-2 2.5 ng/mL) [9] | -4.51 | -10 | 13.8 | 2.67 | 3.42
YT (IL-2 2.5 ng/mL) [10] | 4.02 | 1.12 | 4.21 | 0.09 | 19.3
[1] | -0.52 | -2.88 | -3.45 | 0.31 | 8.45
[11] | -4.01 | -8.97 | -7.94 | -18.4 | -8.33
[12] | 6.42 | -18.3 | -10.7 | -27.7 | 1.26
[13] | -12.3 | -6.1 | -1.97 | -5.14 | -1.61
[14] | -8.13 | -6.38 | -2.7 | -12.9 | -4.56

Conditions | drug sensitivity score
DERL-7 (IL-2 2.5 ng/mL) [16] | 0
IMC-1 (IL-2 20 ng/mL) [17] | 0.04
KAI3 (IL-2 2.5 ng/mL) [18] | 1.37
KHYG-1 (IL-2 2.5 ng/mL) [19] | 16.3
NK-92 (IL-2 2.5 ng/mL) [20] | 0.17
NK-YS (IL-2 2.5 ng/mL) [21] | 0.52
NKL (IL-2 2.5 ng/mL) [22] | 0
SNK-6 (IL-2 2.5 ng/mL) [23] | 0
YT (IL-2 2.5 ng/mL) [24] | 0.55
[15] | 0
[25] | 0
[26] | 0
[27] | 0
[28] | 0

Reference: the supplement of paper PMC5908809
